The values below are quoted from earlier work in US11702451B2, “Method for synthesizing amanitins” (Heidelberg Pharma Research GmbH, priority 2017, dated 2023).

The data set addresses DNA-dependent RNA polymerase II (Homo sapiens, UniProt P24928). The note with it: background statement, no method given; read-out: KD of the complex between amanitin and RNA-polymerase II.

Turning to amanitin, the Kd is 3 nM.

As a reminder, the Kd is a measure of binding affinity in units of concentration.
